Experiments:
[1] = tested on: E. cloacae 144200 expressing Class C P99 AmpC; experiment: broth microdilution MIC, E. cloacae P99; type: cell-based; conditions: Fixed CAZ (ceftazidime) 4 μg/mL
Outline: (§1)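 CAMHB; strains pre-grown 3-5 h. Test cpd 2-fold dilutions, 32→0.25 μg/mL final, + beta-lactam static 4 μg/mL. CLSI inoculation, 16-20 h at 37° C, visual MIC.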

[2] = tested on: P. aeruginosa Ps296 expressing VIM-2; experiment: broth microdilution MIC, P. aeruginosa VIM-2; type: cell-based; conditions: Fixed Mero (meropenem) 4 μg/mL
Outline: as §1

[3] = tested on: K. pneumoniae 156319 expressing KPC-3; experiment: broth microdilution MIC, K. pneumoniae KPC-3; type: cell-based; conditions: Fixed Mero (meropenem) 4 μg/mL
Outline: as §1

OXA-1 β-lactamase = biological target: T1, OXA-1 β-lactamase (Escherichia coli, UniProt P13661); experiment: β-lactamase enzyme inhibition, OXA-1; type: biochemical; conditions: Nitrocefin 100 μM, 486 nm; 15 min at 37° C. preincubation; read-out: IC50 OXA-1 (Class D)
T1 construct: made in house; host or cells: E. coli BL21(DE3)
T1 sequence (P13661 26-276): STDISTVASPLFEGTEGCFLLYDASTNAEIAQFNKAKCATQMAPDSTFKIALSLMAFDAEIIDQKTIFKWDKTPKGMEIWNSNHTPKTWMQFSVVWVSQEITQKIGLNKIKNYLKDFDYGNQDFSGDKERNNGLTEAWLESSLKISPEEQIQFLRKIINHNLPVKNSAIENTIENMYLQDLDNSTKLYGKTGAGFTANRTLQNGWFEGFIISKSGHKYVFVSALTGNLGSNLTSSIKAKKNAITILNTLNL
Outline: (§2)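 Native untagged β-lactamases were expressed in E. coli BL21(DE3) and purified. Enzyme was preincubated with inhibitor for 15 min at 37° C., then substrate hydrolysis was followed: nitrocefin 100 μM for p99 AmpC and OXA-1 (486 nm, 10 min), imipenem for KPC-2 (300 nm), cefotaxime for SHV-5 (260 nm). IC50 was derived from initial rates relative to uninhibited controls.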

[4] = tested on: K. pneumoniae A-1797 expressing KPC-2 and VIM-4; experiment: broth microdilution MIC, K. pneumoniae KPC-2 and VIM-4; type: cell-based; conditions: Fixed Mero (meropenem) 4 μg/mL
Outline: as §1

[5] = tested on: E. coli ESBL4 expressing CTX-M-15; experiment: broth microdilution MIC, E. coli CTX-M-15; type: cell-based; conditions: Fixed CAZ (ceftazidime) 4 μg/mL
Outline: as §1

[6] = tested on: S. aureus MSSA-7 producing penicillinase PC-1; experiment: broth microdilution MIC, S. aureus PC-1; type: cell-based; conditions: Fixed Pip (piperacillin) 4 μg/mL
Outline: as §1

SHV-5 β-lactamase = biological target: T2, SHV-5 β-lactamase (Klebsiella pneumoniae, UniProt P0A3M1); experiment: β-lactamase enzyme inhibition, SHV-5; type: biochemical
T2 construct: made in house; host or cells: E. coli BL21(DE3)
T2 sequence (P0A3M1 22-286): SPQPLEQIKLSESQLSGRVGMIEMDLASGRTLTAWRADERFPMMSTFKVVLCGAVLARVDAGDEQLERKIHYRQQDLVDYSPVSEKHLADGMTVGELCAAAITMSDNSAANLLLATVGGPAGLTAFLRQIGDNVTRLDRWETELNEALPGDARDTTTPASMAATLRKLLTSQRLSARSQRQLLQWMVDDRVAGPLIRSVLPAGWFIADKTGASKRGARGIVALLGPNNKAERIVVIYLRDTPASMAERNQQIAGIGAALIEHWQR
Outline: as §2

p99 AmpC β-lactamase = biological target: T3, p99 AmpC β-lactamase (Enterobacter cloacae, UniProt P05364); experiment: β-lactamase enzyme inhibition, p99 AmpC; type: biochemical
T3 construct: made in house; host or cells: E. coli BL21(DE3)
T3 sequence (P05364 21-381): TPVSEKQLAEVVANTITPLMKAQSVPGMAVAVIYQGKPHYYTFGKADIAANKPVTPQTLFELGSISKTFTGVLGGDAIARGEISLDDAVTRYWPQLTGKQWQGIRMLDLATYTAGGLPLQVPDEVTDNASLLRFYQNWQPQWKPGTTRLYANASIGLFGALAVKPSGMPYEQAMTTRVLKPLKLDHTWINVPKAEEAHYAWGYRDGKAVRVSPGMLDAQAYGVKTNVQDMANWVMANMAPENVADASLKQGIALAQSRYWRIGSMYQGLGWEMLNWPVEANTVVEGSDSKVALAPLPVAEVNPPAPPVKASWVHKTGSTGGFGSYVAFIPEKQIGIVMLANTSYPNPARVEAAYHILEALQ
Outline: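 Native untagged E. cloacae p99 AmpC was expressed in E. coli BL21(DE3) and purified by cation exchange and gel filtration. Enzyme was preincubated with inhibitor at 37°C for 15 min.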

[7] = biological target: T4, VIM-2 metallo β-lactamase (Pseudomonas aeruginosa, UniProt Q9K2N0); experiment: β-lactamase enzyme inhibition, VIM-2; type: biochemical; conditions: Nitrocefin 100 μM, 486 nm; 15 min at 37° C. preincubation; read-out: IC50 VIM-2 (Class B)
T4 construct: made in house; host or cells: E. coli BL21(DE3)
Outline: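 VIM-2 purified by Q sepharose anion exchange (50 mM Hepes pH 7.5, 0-600 mM NaCl gradient, two runs, >90% purity). Enzyme preincubated with inhibitor 15 min at 37° C; nitrocefin 100 μM final, absorbance at 486 nm followed 10 min. IC50 from initial hydrolysis rates versus inhibitor-free controls.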

KPC-2 β-lactamase = biological target: T5, KPC-2 β-lactamase (Klebsiella pneumoniae, UniProt Q9F663); experiment: β-lactamase enzyme inhibition, KPC-2; type: biochemical; conditions: imipenem substrate, 300 nm; 15 min at 37° C. preincubation; read-out: IC50 KPC-2 (Class A)
T5 construct: made in house; host or cells: E. coli BL21(DE3)
T5 sequence (Q9F663 25-293, looked up): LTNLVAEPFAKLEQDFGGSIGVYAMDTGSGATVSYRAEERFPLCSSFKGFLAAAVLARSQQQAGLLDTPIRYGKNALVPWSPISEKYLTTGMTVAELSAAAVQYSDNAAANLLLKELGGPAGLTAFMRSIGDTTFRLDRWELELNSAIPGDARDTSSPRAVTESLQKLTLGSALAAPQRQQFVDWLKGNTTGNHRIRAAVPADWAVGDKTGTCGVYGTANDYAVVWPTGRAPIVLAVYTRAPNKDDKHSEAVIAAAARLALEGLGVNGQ
Outline: as §2

SMILES | MIC of exemplary compounds in presence of fixed β-lactams, E. cl. 144200 p99 AmpC [1] | MIC of exemplary compounds in presence of fixed β-lactams, P. aerug. Ps296 VIM-2 [2] | MIC of exemplary compounds in presence of fixed β-lactams, K.P. 156319 KPC-3 [3] | IC50 (OXA-1 β-lactamase) | MIC of exemplary compounds in presence of fixed β-lactams, K.P. A-1797 KPC-2 VIM-4 [4] | MIC of exemplary compounds in presence of fixed β-lactams, E. coli ESBL4 CTX-M-15 [5] | MIC of exemplary compounds in presence of fixed β-lactams, S. aureus MSSA-7 PC-1 [6] | IC50 (SHV-5 β-lactamase) | IC50 (p99 AmpC β-lactamase) | IC50 [7] | IC50 (KPC-2 β-lactamase)
CC(C)(Cl)CCC(=O)N[C@H]1Cc2cccc(C(=O)O)c2OB1O [Example 24, (R)-3-(4-chloro-4-methylpentanamido)-2-hydroxy-3,4-dihydro-2H-benzo[e][1,2]oxaborinine-8-carboxylicacid] | C (C represents the MIC in the presence of ≤4 g/mL of a β-lactamase inhibitor) | B (B represents the MIC in the presence of between 8 and 32 g/mL of a β-lactamase inhibitor) | C (C represents the MIC in the presence of ≤4 g/mL of a β-lactamase inhibitor) | < 100 nM | B (B represents the MIC in the presence of between 8 and 32 g/mL of a β-lactamase inhibitor) | C (C represents the MIC in the presence of ≤4 g/mL of a β-lactamase inhibitor) | C (C represents the MIC in the presence of ≤4 g/mL of a β-lactamase inhibitor) | < 100 nM | < 100 nM | 1000 to 10000 nM | < 100 nM
CCOCC(=O)N[C@H]1Cc2cccc(C(=O)O)c2OB1O [Example 25, (R)-3-(2-ethoxyacetamido)-2-hydroxy-3,4-dihydro-2H-benzo[e][1,2]oxaborinine-8-carboxylic acid] | C (C represents the MIC in the presence of ≤4 g/mL of a β-lactamase inhibitor) | C (C represents the MIC in the presence of ≤4 g/mL of a β-lactamase inhibitor) | C (C represents the MIC in the presence of ≤4 g/mL of a β-lactamase inhibitor) | < 100 nM | B (B represents the MIC in the presence of between 8 and 32 g/mL of a β-lactamase inhibitor) | C (C represents the MIC in the presence of ≤4 g/mL of a β-lactamase inhibitor) | C (C represents the MIC in the presence of ≤4 g/mL of a β-lactamase inhibitor) | < 100 nM | < 100 nM | 1000 to 10000 nM | < 100 nM
COCCC(=O)N[C@H]1Cc2cccc(C(=O)O)c2OB1O [Example 26, (R)-2-Hydroxy-3-(3-methoxy-propionylamino)-3,4-dihydro-2H-benzo[e][1,2]oxaborinine-8-carboxylic acid] | C (C represents the MIC in the presence of ≤4 g/mL of a β-lactamase inhibitor) | B (B represents the MIC in the presence of between 8 and 32 g/mL of a β-lactamase inhibitor) | C (C represents the MIC in the presence of ≤4 g/mL of a β-lactamase inhibitor) | < 100 nM | B (B represents the MIC in the presence of between 8 and 32 g/mL of a β-lactamase inhibitor) | C (C represents the MIC in the presence of ≤4 g/mL of a β-lactamase inhibitor) | C (C represents the MIC in the presence of ≤4 g/mL of a β-lactamase inhibitor) | 100 to 1000 nM | < 100 nM | 1000 to 10000 nM | < 100 nM
